Key:
[1] = molecular target: T1, Thioredoxin reductase 1, cytoplasmic (Rattus norvegicus, UniProt O89049)
T1 sequence (O89049 whole entry): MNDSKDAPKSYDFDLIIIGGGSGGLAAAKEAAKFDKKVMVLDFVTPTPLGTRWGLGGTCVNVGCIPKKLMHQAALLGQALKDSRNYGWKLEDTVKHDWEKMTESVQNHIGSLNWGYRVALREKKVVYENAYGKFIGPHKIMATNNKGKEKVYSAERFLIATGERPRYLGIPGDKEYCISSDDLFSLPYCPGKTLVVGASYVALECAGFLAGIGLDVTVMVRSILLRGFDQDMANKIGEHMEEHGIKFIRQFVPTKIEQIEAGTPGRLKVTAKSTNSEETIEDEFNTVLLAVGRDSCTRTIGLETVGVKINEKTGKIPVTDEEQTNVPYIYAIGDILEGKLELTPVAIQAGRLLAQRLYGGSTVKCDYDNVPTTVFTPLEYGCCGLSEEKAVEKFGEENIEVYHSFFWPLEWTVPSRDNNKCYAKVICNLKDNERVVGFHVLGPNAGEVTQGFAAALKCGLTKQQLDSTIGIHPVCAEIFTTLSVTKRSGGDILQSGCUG

[2] = molecular target: Thioredoxin reductase 2, mitochondrial (Rattus norvegicus, UniProt Q9Z0J5)
Chain of Thioredoxin reductase 2, mitochondrial (Q9Z0J5 whole entry): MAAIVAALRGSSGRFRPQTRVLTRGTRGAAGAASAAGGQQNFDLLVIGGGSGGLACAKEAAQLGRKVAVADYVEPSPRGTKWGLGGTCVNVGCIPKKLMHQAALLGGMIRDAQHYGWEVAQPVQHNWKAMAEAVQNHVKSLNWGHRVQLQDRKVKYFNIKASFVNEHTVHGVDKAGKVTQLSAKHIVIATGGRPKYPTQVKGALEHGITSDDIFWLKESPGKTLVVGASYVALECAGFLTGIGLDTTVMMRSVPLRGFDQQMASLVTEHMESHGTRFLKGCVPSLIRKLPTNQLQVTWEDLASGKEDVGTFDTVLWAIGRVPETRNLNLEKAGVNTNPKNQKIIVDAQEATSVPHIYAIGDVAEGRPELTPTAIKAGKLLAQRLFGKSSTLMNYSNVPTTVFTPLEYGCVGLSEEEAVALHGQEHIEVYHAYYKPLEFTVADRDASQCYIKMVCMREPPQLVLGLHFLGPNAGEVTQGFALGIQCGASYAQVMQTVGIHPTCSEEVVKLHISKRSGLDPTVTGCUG

O=C(O)C1(C(=O)O)CCC1
IC50 [1]: > 200 µM
IC50 [2]: > 200 µM

Reference: ChEMBL document CHEMBL1142497, “Emerging protein targets for anticancer metallodrugs: inhibition of thioredoxin reductase and cathepsin B by antitumor ruthenium(II)-arene compounds” (J Med Chem, 2008)
